Values quoted from earlier work, collected in patent US20130108552A1, “NEAR-IR INDOCYANINE GREEN DOPED MULTIMODAL SILICA NANOPARTICLES AND METHODS FOR MAKING THE SAME” (UNIVERSITY OF FLORIDA RESEARCH FOUNDATION INC., priority 2010, published 2013).

Key:
[1] = in H2O
[2] = test system: nonspecific plasma proteins

CC1(C)C(/C=C/C=C/C=C/C=C2\N(CCCCS(=O)(=O)O)c3ccc4ccccc4c3C2(C)C)=[N+](CCCCS(=O)(=O)[O-])c2ccc3ccccc3c21 [ICG, indocyanine green]
critical micelle concentration [1]: about 0.32 mg/mL
binding to nonspecific plasma proteins [2]: strongly bind to nonspecific plasma proteins
